According to PubChem BioAssay (NCI):
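Briefly, cells in 96-well plates were exposed to five compound concentrations for 48 h, and endpoints were estimated by linear interpolation. TGI marks complete inhibition of growth.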

Tests used:
Experiment in all cases: inhibition of tumour cell growth, NCI panel, 48 h
SK-MEL-5 melanoma = tested on: SK-MEL-5 melanoma
HT29 colon = tested on: HT29 colon
OVCAR-8 ovarian = tested on: OVCAR-8 ovarian
NCI-H23 lung = tested on: NCI-H23 lung
EKVX NSCLC = tested on: EKVX NSCLC
OVCAR-5 ovarian = tested on: OVCAR-5 ovarian
MALME-3M melanoma = tested on: MALME-3M melanoma
HL-60(TB) leukemia = tested on: HL-60(TB) leukemia
SK-MEL-2 melanoma = tested on: SK-MEL-2 melanoma
NCI/ADR-RES ovarian = tested on: NCI/ADR-RES ovarian
IGROV1 ovarian = tested on: IGROV1 ovarian
KM12 colon = tested on: KM12 colon
SF-268 CNS = tested on: SF-268 CNS
HOP-62 NSCLC = tested on: HOP-62 NSCLC
SNB-75 CNS = tested on: SNB-75 CNS
UACC-62 melanoma = tested on: UACC-62 melanoma
A549 NSCLC = tested on: A549 NSCLC
COLO 205 colon = tested on: COLO 205 colon
T-47D breast = tested on: T-47D breast
SR leukemia = tested on: SR leukemia

| SMILES | TGI (SK-MEL-5 melanoma) [µM] | TGI (HT29 colon) [µM] | TGI (OVCAR-8 ovarian) [µM] | TGI (NCI-H23 lung) [µM] | TGI (EKVX NSCLC) [µM] | TGI (OVCAR-5 ovarian) [µM] | TGI (MALME-3M melanoma) [µM] | TGI (HL-60(TB) leukemia) [µM] | TGI (SK-MEL-2 melanoma) [µM] | TGI (NCI/ADR-RES ovarian) [µM] | TGI (IGROV1 ovarian) [µM] | TGI (KM12 colon) [µM] | TGI (SF-268 CNS) [µM] | TGI (HOP-62 NSCLC) [µM] | TGI (SNB-75 CNS) [µM] | TGI (UACC-62 melanoma) [µM] | TGI (A549 NSCLC) [µM] | TGI (COLO 205 colon) [µM] | TGI (T-47D breast) [µM] | TGI (SR leukemia) [µM] |
| --- | --- | --- | --- | --- | --- | --- | --- | --- | --- | --- | --- | --- | --- | --- | --- | --- | --- | --- | --- | --- |
| CC(C)(C)OC(=O)N/N=C(/N)c1ccccc1 | > 100 | > 100 | > 100 | > 100 | > 100 | > 100 | > 100 | > 100 | > 100 | > 100 | > 100 | > 100 | > 100 | > 100 | > 100 | > 100 | > 100 | > 100 | > 100 |  |
| NCCc1ccc2c(c1)C(=O)c1c(O)ccc(O)c1C2=O | 3.94 |  | 9.19 | > 60.8 | 6.73 | > 87 | 4.75 | 5.34 | > 100 | > 82.9 | > 100 | > 100 | 25.3 | 13.4 | 42.3 | 39.7 | > 45.4 | > 100 |  | > 100 |
| COc1ccc(C(=O)c2ccc(-n3c4ccccc4c4ccc5c(c43)C(=O)C=CC5=O)cc2)cc1 | 12.9 | 3.65 |  | 5.18 | 4.32 | 40.3 |  |  | 11.3 | > 21.3 | 10.4 | 10 | 2.33 | 28.7 | > 30.9 | 8.02 | 10.8 | 9.34 | > 100 | > 100 |
| COc1cccc(-c2cc(=O)c3cccnc3[nH]2)c1 | 13.1 | 0.561 | > 100 |  | > 100 | > 100 | > 100 |  | > 100 |  | > 100 | > 100 | > 100 | > 100 | > 100 | > 100 | > 42.7 |  | > 100 |  |
| c1ccc2c3nnc(c2c1)SCCSCCCSCCS3 | > 100 | > 100 | > 100 | > 100 | > 100 | > 100 | 77.3 | > 100 | > 100 | > 100 | > 100 | > 100 | > 100 | 70.9 | 18.5 | > 100 | > 100 | > 100 | > 100 |  |
| COc1ccc2c(c1)CC[C@@H]1[C@@H]2CC[C@]2(C)[C@@H](O)/C(=C/c3ccncc3)C[C@@H]12 | 21.4 | 15 | 28.2 | 31.7 | 70.6 | 30.7 | 29.9 | 39.2 | 31.1 | 37.2 | 30 | 31.4 | 28.2 | 37.3 | 39.8 | 29.6 | 41.1 | 16 | 28.9 |  |
| O=C(NNC(=O)c1ccccc1Cl)c1ccccc1O | > 100 | > 100 | > 100 |  | > 100 | > 100 | > 100 |  | > 100 | > 100 | > 100 | > 100 | > 100 | > 100 | > 100 | > 100 | > 100 | > 100 | > 100 | > 100 |
| CC1(C)S[C@@H]2[C@H](NC(=O)/C=C/c3ccccc3)C(=O)N2[C@H]1C(=O)O | > 100 | > 100 | > 100 | > 100 |  | > 100 | > 100 | > 100 | > 100 | > 100 | > 100 | > 100 | > 100 | > 100 | > 100 | > 100 | > 100 | > 100 | > 100 | > 100 |
| O=c1c2ncn(CCCl)c2n(-c2ccccc2)c(=S)n1-c1ccccc1 | > 100 | > 100 | > 100 | > 100 | > 100 | > 100 | > 100 | > 100 | > 100 | > 100 | > 100 | > 100 | > 100 | > 100 |  | > 100 | > 100 | > 100 | > 100 | > 100 |
| COC(=O)/C(=C\C(=O)c1ccc(Br)cc1)NN=C(c1ccccc1)c1ccccc1 | > 10 | > 10 | > 10 | > 10 | > 10 |  | > 10 | > 10 |  |  | > 10 | > 10 | > 10 | > 10 | > 10 | > 10 | > 10 | > 10 | > 10 | > 10 |
| O=C(NC/C(Cl)=C/Cl)Nc1cccc2c1CCCC2 | > 100 | > 100 | > 100 | > 100 | > 100 | > 100 | > 100 |  | > 100 | > 100 | > 100 | > 100 | > 100 | > 100 | > 100 | > 100 | > 100 | > 100 | > 100 | > 100 |
| O=C(CCc1cccc(O)c1)NCCc1cccc(OCc2ccccc2)c1 | 29.7 | 30.7 | 67.9 | 45.2 | 62.2 | 57.9 | 39.2 | > 100 | 32.3 | 41.2 | 25.2 | 21.3 | 43 | 30.6 |  | 28.4 | > 70.9 | 38 | 55 | > 71.6 |
| Nc1cnc2c(c1)c(=O)nc1n2CCS1 | > 100 | > 100 | > 100 | > 100 | > 100 | > 100 | > 100 | > 100 | > 100 | > 100 |  | > 100 | > 100 | > 100 | > 100 | > 100 | > 100 | > 100 |  |  |
